US9441012B2, “Fluorinated epoxyketone-based compounds and uses thereof as proteasome inhibitors” (FLUORINOV PHARMA INC., priority 2012, dated 2016)

Assays:
Assay in all cases: NCI 60 human tumor cell line screen (SRB)
Assay type in all cases: cell-based
[1] = system: MOLT-4; details: MOLT-4 (Leukemia); 48 h
[2] = system: SR; details: SR (Leukemia); 48 h
[3] = system: HOP-62; details: HOP-62 (Non-Small Cell Lung Cancer); 48 h
[4] = system: SK-MEL-2; details: SK-MEL-2 (Melanoma); 48 h
[5] = system: NCI-H460; details: NCI-H460 (Non-Small Cell Lung Cancer); 48 h
[6] = system: T-47D; details: T-47D (Breast Cancer); 48 h
[7] = system: NCI-H522; details: NCI-H522 (Non-Small Cell Lung Cancer); 48 h
[8] = system: SK-MEL-5; details: SK-MEL-5 (Melanoma); 48 h
Description: (§1) Representative compounds of Formula I were screened using the National Cancer Institute (NCI) screening panel, which consists of a panel of 60 different human tumor cell lines, representing leukemia [CCRF-CEM, HL-60 (TB), K-562, MOLT-4, SR], melanoma [LOX IMVI, MALME-3M, M14, SMDA-MB-435, SK-MEL-2, SK-MEL-28, SK-MEL-5, UACC-257 and UACC-62] and cancers of the lung [A549/ATCC, EKVX, HOP-62, HOP-93, NCI-H226, NCI-H23, NCI-H322M, NCI-H460], colon [COLO 205, HCT-116, HCT-15, HT29, KM12, SW-620], brain [SF-268, SF-295, SF-539, SNB-19, SNB-75, U251], ovary [IGROV1, OVCAR-3, OVCAR-4, OVCAR-5, OVCAR-8, NCI/ADR-RES, SK-OV-3], breast [MCF7, MDA-MB-231, BT-549, T-47D, MDA-MB-468], prostate [PC-3, DU-145], and renal[786-0, A498, ACHN, CAKI-1, RXF-393, SN12C, TK-10, UO-31] cancers.
(§2) After 24 h, two plates of each cell line are fixed in situ with TCA, to represent a measurement of the cell population for each cell line at the time of drug addition (Tz). Experimental drugs are solubilised in dimethyl sulfoxide at 400-fold the desired final maximum test concentration and stored frozen prior to use. At the time of drug addition, an aliquot of frozen concentrate is thawed and diluted to twice the desired final maximum test concentration with complete medium containing 50 μg/ml gentamicin. Additional four, 10-fold or ½ log serial dilutions are made to provide a total of five drug concentrations plus control. Aliquots of 100 μl of these different drug dilutions are added to the appropriate microtiter wells already containing 100 μl of medium, resulting in the required final drug concentrations.
(§3) Following drug addition, the plates are incubated for an additional 48 h at 37° C., 5% CO2, 95% air, and 100% relative humidity. For adherent cells, the assay is terminated by the addition of cold TCA (trichloroacetic acid). Cells are fixed in situ by the gentle addition of 50 μl of cold 50% (w/v) TCA (final concentration, 10% TCA) and incubated for 60 minutes at 4° C. The supernatant is discarded, and the plates are washed five times with tap water and air dried. Sulforhodamine B (SRB) solution (100 μl) at 0.4% (w/v) in 1% acetic acid is added to each well, and plates are incubated for 10 minutes at room temperature. After staining, unbound dye is removed by washing five times with 1% acetic acid and the plates are air dried. Bound stain is subsequently solubilised with 10 mM trizma base, and the absorbance is read on an automated plate reader at a wavelength of 515 nm. For suspension cells, the methodology is the same except that the assay is terminated by fixing settled cells at the bottom of the wells by gently adding 50 μl of 80% TCA (final concentration, 16% TCA). Using the seven absorbance measurements [time zero, (Tz), control growth, (C), and test growth in the presence of drug at the five concentration levels (Ti)], the percentage growth is calculated at each of the drug concentration levels. Percentage growth inhibition is calculated as: [(Ti−Tz)/(C−Tz)]×100 for concentrations in which Ti>/=Tz and [(Ti−Tz)/Tz]×100 for concentrations in which Ti<Tz.
(§4) Three dose response parameters are calculated for each experimental agent. Growth inhibition of 50% (GI50) is calculated from [(Ti−Tz)/(C−Tz)]100=50, which is the drug concentration resulting in a 50% reduction in the net protein increase (as measured by SRB staining) in control cells during the drug incubation. The drug concentration resulting in total growth inhibition (TGI) is calculated from Ti=Tz. The LC50 (concentration of drug resulting in a 50% reduction in the measured protein at the end of the drug treatment as compared to that at the beginning) indicating a net loss of cells following treatment is calculated from [(Ti−Tz)/Tz]×100=−50. Values are calculated for each of these three parameters if the level of activity is reached. However, if the effect is not reached or is exceeded, the value for that parameter is expressed as greater or less than the maximum or minimum concentration tested.

[9] = system: NCI-H226; details: NCI-H226 (Non-Small Cell Lung Cancer); 48 h
Description: as §1, §2, §3, §4

[10] = system: SK-OV-3; details: SK-OV-3 (Ovarian Cancer); 48 h
Description: as §1, §2, §3, §4

[11] = system: OVCAR-8; details: OVCAR-8 (Ovarian Cancer); 48 h
Description: as §1, §2, §3, §4

[12] = system: SK-MEL-28; details: SK-MEL-28 (Melanoma); 48 h
Description: as §1, §2, §3, §4

`C[C@]1(C(=O)[C@H](Cc2ccccc2)NC(=O)[C@H](Cc2ccccc2)NC(=O)[C@H](COC(F)F)NC(=O)CN2CCOCC2)CO1` [Example 29] was tested. Which Log10GI50 [1] did it give?
Its Log10GI50 is −7.54.

And the Log10LC50 [1]?
The Log10LC50 was over −4.00.

What about the Log10TGI50 [1] of the same compound?
Its Log10TGI50 is −7.05.

And the Log10GI50 [2]?
Its Log10GI50 is −7.69.

What about the Log10LC50 [2] of the same compound?
Its Log10LC50 is over −4.00.

What about the Log10TGI50 [2] of the same compound?
The Log10TGI50 was −4.36.

And the Log10GI50 [3]?
Its Log10GI50 is −7.31.

What about the Log10LC50 [3] of the same compound?
Its Log10LC50 is −4.32.

And the Log10TGI50 [3]?
The Log10TGI50 was −6.53.

And the Log10GI50 [4]?
The Log10GI50 was −7.19.

What about the Log10LC50 [4] of the same compound?
The Log10LC50 was over −4.00.

What about the Log10TGI50 [4] of the same compound?
Its Log10TGI50 is −6.02.

And the Log10GI50 [5]?
Its Log10GI50 is −6.49.

What about the Log10LC50 [5] of the same compound?
Its Log10LC50 is over −4.00.

What about the Log10TGI50 [5] of the same compound?
The Log10TGI50 was −5.87.

What about the Log10GI50 [6] of the same compound?
Its Log10GI50 is −7.16.

And the Log10TGI50 [6]?
The Log10TGI50 was −6.62.

And the Log10GI50 [7]?
Its Log10GI50 is −6.90.

And the Log10LC50 [7]?
The Log10LC50 was over −4.00.

And the Log10TGI50 [7]?
Its Log10TGI50 is −6.17.

What about the Log10GI50 [8] of the same compound?
The Log10GI50 was −7.22.

What about the Log10LC50 [8] of the same compound?
The Log10LC50 was −6.20.

And the Log10TGI50 [8]?
Its Log10TGI50 is −6.66.

What about the Log10GI50 [9] of the same compound?
Its Log10GI50 is −7.64.

And the Log10LC50 [9]?
The Log10LC50 was −6.51.

What about the Log10TGI50 [9] of the same compound?
The Log10TGI50 was −7.24.

What about the Log10GI50 [10] of the same compound?
The Log10GI50 was −6.46.

What about the Log10LC50 [10] of the same compound?
The Log10LC50 was over −4.00.

What about the Log10TGI50 [10] of the same compound?
The Log10TGI50 was −5.78.

And the Log10GI50 [11]?
Its Log10GI50 is −6.59.

And the Log10LC50 [11]?
The Log10LC50 was over −4.00.

What about the Log10TGI50 [11] of the same compound?
Its Log10TGI50 is over −4.00.

What about the Log10GI50 [12] of the same compound?
Its Log10GI50 is −7.13.

And the Log10LC50 [12]?
Its Log10LC50 is over −4.00.

What about the Log10TGI50 [12] of the same compound?
The Log10TGI50 was −6.34.
